# How the values were obtained:
# [1] = system: Male Sprague Dawley rats; test: Dural inflammation migraine model, tactile hyperesthesia of the hindpaw (50% paw withdrawal threshold, von Frey filaments); format: in vivo, rat
# [2] = system: Male Sprague Dawley rats; test: Dural inflammation migraine model, facial tactile hyperesthesia (50% facial response threshold, von Frey filaments); format: in vivo, rat
compound,measurement,setting,value
"N[C@@H](CCC(=O)N[C@@H](CSN=O)C(=O)NCC(=O)O)C(=O)O [SNOG, s-nitrosylglutathione]",tactile hyperesthesia of the hindpaw after administration to the dura,"[1]; administered to the dura, results two hours after treatment (FIG. 4)",produced a tactile hyperesthesia effect similar to that induced by administration of the IM cocktail
CCCCN1CCCCC1C(=O)Nc1c(C)cccc1C (stereo not shown) [bupivacaine],50% facial response threshold versus control rats with dural IM cocktail only,[2]; administered in the RVM thirty minutes after IM cocktail (FIGS. 7A-7B),increase in facial response threshold
same,50% paw withdrawal threshold versus control rats with dural IM cocktail only,[1]; administered in the RVM thirty minutes after IM cocktail (FIG. 9A),increase in paw withdrawal threshold
same,50% paw withdrawal threshold versus control rats with dural IM cocktail only,[1]; administered in the RVM two hours after IM cocktail (FIG. 9B),significant increase in test animal paw withdrawal threshold
CNS(=O)(=O)Cc1ccc2[nH]cc(CCN(C)C)c2c1 [sumatriptan],50% facial response threshold versus control rats with dural IM cocktail only,[2]; systemic administration thirty minutes after IM cocktail (FIGS. 6A-6B),increase in facial response threshold
same,50% paw withdrawal threshold versus control rats with dural IM cocktail only,[1]; 0.6 mg/kg s.c. ten minutes prior to IM cocktail (FIG. 8),increase in paw withdrawal threshold
same,tactile hyperesthesia of the hindpaw induced by dural inflammation,"[1]; sumatriptan succinate subcutaneously 1 mg/kg five minutes prior to dural IM cocktail, results two hours after dural treatment (FIG. 10)",attenuates tactile hyperesthesia of the hindpaw
